Drawing on PubChem BioAssay (NCI), this text covers TGI for 15 molecules.

Some test systems named below: HT29 colon; TK-10 renal; OVCAR-4 ovarian; SN12C renal; UACC-62 melanoma; SK-OV-3 ovarian; HOP-62 NSCLC; A498 renal; RXF 393 renal.
Holding throughout (experiment): inhibition of tumour cell growth, NCI panel, 48 h

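Assay format: 96-well plates, 48-hour exposure. TGI is the concentration that stops growth completely.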

In the case of `CC(=O)NNc1nc(C)c(C(=O)NNC(=O)C(=O)Nc2ccc(Cl)c([N+](=O)[O-])c2)s1`, the TGI in the assay with HT29 colon, with TK-10 renal, with OVCAR-4 ovarian, in the assay on SN12C renal, in the assay on UACC-62 melanoma and in the assay with SK-OV-3 ovarian was over 100 µM throughout. Also, in the assay on HOP-62 NSCLC, the TGI is over 100 µM.

`O=C1C=CC2(CCCCCCC2=O)CC1` (stereo unspecified): the TGI in the assay on HT29 colon, in the assay with TK-10 renal, in the assay with OVCAR-4 ovarian, in the assay with SN12C renal, with A498 renal and in the assay on RXF 393 renal was over 100 µM in each case. In addition, the TGI in the assay on UACC-62 melanoma, with SK-OV-3 ovarian and with HOP-62 NSCLC was over 100 µM each time.

For the molecule `COc1cc(/C=C/C(=O)c2cccc3ccccc23)cc(OC)c1OC`, the TGI was found to be 14.4 µM in the assay with HT29 colon; 27.3 µM in the assay with TK-10 renal; 19.1 µM in the assay with OVCAR-4 ovarian; 12.5 µM in the assay with SN12C renal; 10.6 µM with A498 renal; 7.93 µM with RXF 393 renal. Also, the TGI in the assay on UACC-62 melanoma stood at 21.3 µM; in the assay with SK-OV-3 ovarian, 28.5 µM; in the assay on HOP-62 NSCLC it was 18.8 µM.

On to `O=C(CCc1nc(=S)[nH][nH]1)Nc1cc(Cl)ccc1Cl`, for which the TGI in the assay with HT29 colon, in the assay on TK-10 renal, in the assay with OVCAR-4 ovarian, in the assay with SN12C renal, in the assay on A498 renal and in the assay on UACC-62 melanoma was over 100 µM each time. For the same molecule, the TGI in the assay with SK-OV-3 ovarian and in the assay on HOP-62 NSCLC was over 100 µM each time.

As to `NC1=NN(c2ccccc2)C(=O)C1C(=O)C(=O)Nc1ccc(Cl)cc1` (stereo unspecified), the TGI with HT29 colon, in the assay with TK-10 renal, in the assay with OVCAR-4 ovarian, in the assay with SN12C renal, in the assay on A498 renal and with RXF 393 renal was over 100 µM in each case. Moreover, the TGI in the assay with UACC-62 melanoma, in the assay with SK-OV-3 ovarian and in the assay with HOP-62 NSCLC was over 100 µM in each case.

For `O=S(=O)(C1=CC(S(=O)(=O)c2ccccc2)COC1)c1ccccc1` (stereo unspecified), the TGI in the assay with HT29 colon, in the assay on TK-10 renal, in the assay on OVCAR-4 ovarian, in the assay with SN12C renal, in the assay on RXF 393 renal and with UACC-62 melanoma was over 100 µM throughout. For the same molecule, the TGI with SK-OV-3 ovarian and with HOP-62 NSCLC was over 100 µM each time.

Turning to `Cc1ccccc1NC(=O)CC1C(=O)Nc2ccccc2S1=O` (stereo unspecified), the TGI is over 100 µM in the assay on HT29 colon; over 100 µM with TK-10 renal; over 100 µM with OVCAR-4 ovarian; over 100 µM in the assay with SN12C renal; over 100 µM with A498 renal; 51.8 µM with RXF 393 renal. The same molecule registered a TGI in the assay with UACC-62 melanoma of over 100 µM.

For `O=C(NCCCCCCCCCCCCNC(=O)c1cnc2ccccc2n1)c1cnc2ccccc2n1`, the TGI in the assay on HT29 colon was over 100 µM; in the assay with OVCAR-4 ovarian, 29.8 µM; with SN12C renal, over 100 µM; with A498 renal, over 100 µM; in the assay with RXF 393 renal, 88.6 µM; with UACC-62 melanoma, over 100 µM. Further, the TGI in the assay on SK-OV-3 ovarian is 55.5 µM; in the assay with HOP-62 NSCLC it was over 100 µM.

For the molecule `C#CCN(N=O)C(=O)NC(CCCCNC(=O)OCc1ccccc1)C(=O)OCc1ccccc1` (stereo unspecified), the TGI in the assay with HT29 colon is 46.9 µM; in the assay with TK-10 renal, 86 µM; with OVCAR-4 ovarian, 72.8 µM; with SN12C renal, 97.9 µM; in the assay with A498 renal, over 100 µM; with RXF 393 renal, over 100 µM. Also, the TGI in the assay on UACC-62 melanoma, in the assay on SK-OV-3 ovarian and in the assay on HOP-62 NSCLC was over 100 µM each time.

On to `CC(=O)Nc1ccccc1-c1nc2ccccc2nc1-c1ccccc1`, for which the TGI in the assay on HT29 colon, in the assay on OVCAR-4 ovarian, in the assay on SN12C renal, in the assay on A498 renal, in the assay with RXF 393 renal and in the assay on UACC-62 melanoma was over 100 µM throughout. The TGI in the assay on SK-OV-3 ovarian and in the assay with HOP-62 NSCLC was over 100 µM in each case.

As to `Cc1ccc2nc(NC(=O)C(=O)C(C(=O)c3ccc4ccccc4c3)C3OC(=O)c4ccccc43)sc2c1` (stereo unspecified), the TGI is 31.3 µM with HT29 colon; over 100 µM in the assay on OVCAR-4 ovarian; 31.6 µM in the assay with SN12C renal; 21.3 µM in the assay with A498 renal; 8.79 µM in the assay on RXF 393 renal; 25 µM in the assay with UACC-62 melanoma. In addition, the TGI in the assay on SK-OV-3 ovarian is over 100 µM; in the assay on HOP-62 NSCLC it was 26.6 µM.

`c1ccc2c(c1)[nH]c1cnc3c4ncccc4[nH]c3c12`: the TGI in the assay on HT29 colon, in the assay on TK-10 renal, with OVCAR-4 ovarian, in the assay on SN12C renal, with A498 renal and in the assay with RXF 393 renal was over 100 µM each time. The TGI in the assay with UACC-62 melanoma, in the assay on SK-OV-3 ovarian and in the assay with HOP-62 NSCLC was over 100 µM in each case.

On to `CC(=O)OC1C[C@H]2C(OC(=O)c3ccccc3)C3C4(OC(C)=O)COC4C[C@H](OC(C)=O)[C@@]3(C)C(OC(C)=O)[C@H](OC(C)=O)C(=C1C)C2(C)C` (stereo partly specified), for which the TGI with HT29 colon was over 100 µM; in the assay with TK-10 renal, over 100 µM; in the assay with OVCAR-4 ovarian, over 100 µM; in the assay on SN12C renal, over 100 µM; in the assay on A498 renal it was over 100 µM; with RXF 393 renal, 49.3 µM. Further, the TGI with UACC-62 melanoma, in the assay on SK-OV-3 ovarian and in the assay with HOP-62 NSCLC was over 100 µM throughout.

In the case of `Cc1ccccc1/C=C/c1csnn1`, the TGI in the assay with HT29 colon, with TK-10 renal, in the assay on OVCAR-4 ovarian, in the assay on SN12C renal, in the assay with A498 renal and in the assay on RXF 393 renal was over 100 µM in each case. Also, the TGI with UACC-62 melanoma, in the assay with SK-OV-3 ovarian and with HOP-62 NSCLC was over 100 µM in each case.

For the molecule `CCOC(=O)c1oc2c(OC)ccc3c2c1CCC3`, the TGI in the assay with HT29 colon, with TK-10 renal, with OVCAR-4 ovarian, with SN12C renal, with A498 renal and with RXF 393 renal was over 100 µM each time. The TGI in the assay on UACC-62 melanoma, with SK-OV-3 ovarian and in the assay on HOP-62 NSCLC was over 100 µM each time.
